The series is described as follows: Kinetic release of DHT from PCL20-b-PEO44 micelles (dialysis method, PBS pH 7.4, 37° C.). Type of series: physicochemical. Particulars: control solution (drug alone). The protocol:
To the dried micelles, 100 μL of phosphate buffer solution, PBS (pH 7.4) was added. To ensure that the micelles were well dispersed in PBS, the solutions were vortexed. The dispersed micelles were left to stand in a 37° C. warm room for 30 minutes. Once the micelle solution had reached 37° C., it was placed in a dialysis bag which was immersed in a large vial containing warmed PBS (10 mL PBS, pH=7.4, 37° C.). […] The aliquot was dispersed in 4 mL of scintillation cocktail and then counted. Following the removal of each 100 uL aliquot, a 100 uL aliquot of fresh PBS was added.
The dialysis method was used to study the release of DHT from two micelle solutions which differed in the amount of DHT that they contained. The concentration of the solutions studied were 8 mM and 40 mM.

Turning to `C[C@]12CCC(=O)C[C@@H]1CC[C@@H]1[C@@H]2CC[C@]2(C)[C@@H](O)CC[C@@H]12` [DHT, dihydrotestosterone], the “time to complete release” value is 3 h.

The values are drawn from patent US20030176406A1, “Polycaprolactone-b-poly (ethylene oxide) copolymer non-cross-linked micelles as a delivery vehicle for steroid” (McGill University, priority 1999, published 2003).
